Reference: PubChem BioAssay (NCI)
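How tested: cells in 96-well plates exposed to compound for 48 hours at five concentrations. The concentration for full growth arrest is given as TGI.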

Tests used:
Experiment in all cases: DTP human tumour cell line panel, 48 h
SR leukemia = tested on: SR leukemia
SNB-19 CNS = tested on: SNB-19 CNS
EKVX NSCLC = tested on: EKVX NSCLC
CAKI-1 renal = tested on: CAKI-1 renal
MOLT-4 leukemia = tested on: MOLT-4 leukemia
RXF 393 renal = tested on: RXF 393 renal
SK-OV-3 ovarian = tested on: SK-OV-3 ovarian
NCI/ADR-RES ovarian = tested on: NCI/ADR-RES ovarian
UACC-257 melanoma = tested on: UACC-257 melanoma
OVCAR-4 ovarian = tested on: OVCAR-4 ovarian
RPMI-8226 leukemia = tested on: RPMI-8226 leukemia
IGROV1 ovarian = tested on: IGROV1 ovarian

Row | Structure (SMILES) | TGI (SR leukemia) [µM] | TGI (SNB-19 CNS) [µM] | TGI (EKVX NSCLC) [µM] | TGI (CAKI-1 renal) [µM] | TGI (MOLT-4 leukemia) [µM] | TGI (RXF 393 renal) [µM] | TGI (SK-OV-3 ovarian) [µM] | TGI (NCI/ADR-RES ovarian) [µM] | TGI (UACC-257 melanoma) [µM] | TGI (OVCAR-4 ovarian) [µM] | TGI (RPMI-8226 leukemia) [µM] | TGI (IGROV1 ovarian) [µM]
1 | COc1cc(C2S/C(=C/c3ccccc3)C(=O)N2c2cccc(NC(C)=O)c2)cc(OC)c1OC (stereo not drawn) | > 100 | > 100 | 53.2 | > 100 | > 100 | > 100 | > 100 | > 100 | > 100 | > 100 |  | 
2 | C/C(C=O)=C/[C@@]1(C)O[C@@H](C)[C@@](C)(O)[C@@H]1O | 7.12 | > 100 | > 100 | 37.1 | 25.7 | > 100 | > 100 | 56.1 | > 100 | > 100 | > 100 | > 100
3 | C#C[C@]1(O)CC[C@H]2[C@@H]3CCc4cc(O)ccc4[C@H]3CC[C@@]21C | > 100 | > 100 | > 100 | > 100 | > 100 | 62.2 | 79.7 |  | > 100 |  |  | > 100
4 | COC(=O)/C=C\C(C#N)(C#N)N=Cc1ccc(OC)cc1 | 3.99 | > 62.7 | 32 | 4.48 | 4.39 | 5.42 | 31 | 9.09 | 11.6 | 12.8 | 2.87 | 28.7
5 | Cc1c(-c2ccccc2)[nH]c2cn[nH]c(=O)c12 | > 100 | > 100 | > 100 | > 100 | > 100 |  | > 100 | > 100 | > 100 |  | > 100 | > 100
6 | COc1cccc(C23CCN(C)C(CC(O)C2)C3)c1OC (stereo not drawn) | > 100 | > 100 | > 100 | > 100 | > 100 |  | > 100 | > 100 | > 100 | > 100 | > 100 | > 100
7 | O=C(O)c1cc2ccccc2c(N=Nc2ccc(S(=O)(=O)Nc3ncccn3)cc2)c1O | > 100 | > 100 | > 100 | > 100 | > 100 | > 100 | > 100 | > 100 | > 100 | > 100 | > 100 | > 100
8 | CN(CCc1ccccn1)c1ccc2c(c1)C(=O)c1ccccc1-2 |  | > 100 | > 100 | > 100 |  | > 100 | > 100 | > 100 | > 100 | > 100 | > 100 | > 100
9 | CCc1n[nH]c(=O)n1/N=C(\C)c1ccccc1 |  | > 100 | > 100 | > 100 | > 100 | > 100 |  | > 100 | > 100 | > 100 | > 100 | > 100
10 | O=C(Cc1nc2ccccc2[nH]c1=O)c1c[nH]c2ccccc12 | > 100 | > 100 | > 100 | 63.4 | > 100 | 46.1 | 47.6 | 28.5 | > 100 | 72.2 | > 100 | > 100
11 | CCOc1nc2c(N3CCCC3)nc(N3CCNCC3)nc2nc1NCc1ccccc1 | 3.12 | 3.45 | 4.33 | 6.71 | 2.8 | 2.29 | 3.26 | 8.6 | 3.25 | 6.05 | 3.37 | 2.64
12 | CC1(C)OC[C@@H]([C@@]2(COC(c3ccccc3)(c3ccccc3)c3ccccc3)CC=CC(=O)O2)O1 | > 100 | > 100 | 83.8 | > 100 | 98.2 | 69.5 | > 100 |  | > 100 | > 100 | 64.7 | 
13 | COc1ccc(C2C3CCc4ccccc4C3=NN2S(=O)(=O)c2cccc(C(=O)O)c2OC)cc1 (stereo not drawn) | > 100 | > 100 | > 100 | > 100 | > 100 | 62 | 17.7 | 11.7 |  | > 100 | 54.7 | > 100
14 | Cc1ccc(-c2cc(-c3ccc(Cl)cc3)nc(/N=C3\C(=O)N(CN(C)C)c4ccccc43)n2)cc1 |  | > 100 | > 100 | > 100 | 33.5 | 63.9 | > 100 | > 100 | 94.7 | > 100 |  | > 100
15 | Oc1ccccc1C=Nc1ccc(-c2nc3ccccc3s2)cc1 | > 100 | > 100 | 85.2 | > 100 | > 100 | > 100 | > 100 | > 100 | 67.5 | > 100 | > 100 | > 100
